Measurements: the CheMixHub viscosity set
Several values for one entry are separate records, joined by “and”; a condition that tells them apart may be missing. Equal entries are not always repeated. ± gives the uncertainty stated by the source.

Assay: xn = mol fraction of the nth substance listed

BrCCBr + Cc1ccccc1
101.33 kPa
Conditions	viscosity [mPa·s]
298.15 K, x1 = 0.1229	0.6433 ± 0.0081
298.15 K, x1 = 0.2578	0.6736 ± 0.0084
298.15 K, x1 = 0.348	0.7383 ± 0.0091
298.15 K, x1 = 0.4549	0.8563 ± 0.01
298.15 K, x1 = 0.5548	0.9001 ± 0.011
298.15 K, x1 = 0.6537	1.015 ± 0.012
298.15 K, x1 = 0.746	1.105 ± 0.013
298.15 K, x1 = 0.8331	1.268 ± 0.015
298.15 K, x1 = 0.9171	1.381 ± 0.016
308.15 K, x1 = 0.1176	0.5499 ± 0.007
308.15 K, x1 = 0.2377	0.6 ± 0.0075
308.15 K, x1 = 0.3568	0.6572 ± 0.0081
308.15 K, x1 = 0.4489	0.7283 ± 0.0089
308.15 K, x1 = 0.5524	0.8275 ± 0.01
308.15 K, x1 = 0.652	0.9069 ± 0.011
308.15 K, x1 = 0.7416	0.9937 ± 0.012
308.15 K, x1 = 0.8319	1.111 ± 0.013
308.15 K, x1 = 0.9144	1.233 ± 0.014

C1COCCO1 + CCCCO
298.15 K, 101 kPa
Conditions	viscosity [mPa·s]
x1 = 0.0346	2.264 ± 0.021
x1 = 0.127	1.806 ± 0.017
x1 = 0.5	1.272 ± 0.061
x1 = 0.5917	1.099 ± 0.01
x1 = 0.6726	1.074 ± 0.01
x1 = 0.7123	1.07 ± 0.01
x1 = 0.768	1.073 ± 0.01
x1 = 0.8002	1.078 ± 0.01
x1 = 0.8852	1.091 ± 0.01
x1 = 0.9472	1.126 ± 0.011

C#Cc1ccccc1 + CCCCCOC(C)=O
Conditions	viscosity [mPa·s]
298.15 K, 101 kPa, x1 = 0.0691	0.791 ± 0.0097

CCCCn1cc[n+](C)c1.O=S(=O)([N-]S(=O)(=O)C(F)(F)F)C(F)(F)F + CCCCn1cc[n+](C)c1.F[P-](F)(F)(F)(F)F
Conditions	viscosity [mPa·s]
318.15 K, 100 kPa, x1 = 0.25	58.45 ± 2.9

COc1ccccc1O + CN(C)c1ccccc1
303.15 K, 101 kPa
Conditions	viscosity [mPa·s]
x2 = 0.1	3.71 ± 0.1
x2 = 0.2	3.21 ± 0.09
x2 = 0.3	2.84 ± 0.08
x2 = 0.4	2.46 ± 0.07
x2 = 0.5	2.16 ± 0.06
x2 = 0.6	1.89 ± 0.05
x2 = 0.7	1.65 ± 0.04
x2 = 0.8	1.46 ± 0.04
x2 = 0.9	1.31 ± 0.03

O=C[C@H](O)[C@@H](O)[C@H](O)CO + O
viscosity, 101 kPa
Conditions	x1 = 0.000546	x1 = 0.0009	x1 = 0.00124	x1 = 0.0031	x1 = 0.006	x1 = 0.0063	x1 = 0.013
293.15 K	–	–	–	1.053 ± 0.013 mPa·s	1.118 ± 0.024 mPa·s and 1.118 ± 0.014 mPa·s (2×)	1.118 ± 0.014 mPa·s	1.229 ± 0.026 mPa·s and 1.229 ± 0.015 mPa·s and 1.229 ± 0.016 mPa·s
298.15 K	0.9164 ± 0.013 mPa·s	0.9244 ± 0.013 mPa·s	0.9306 ± 0.013 mPa·s	–	0.9937 ± 0.021 mPa·s and 0.9937 ± 0.012 mPa·s and 0.9937 ± 0.013 mPa·s	0.9937 ± 0.013 mPa·s	–
303.15 K	–	–	–	0.8381 ± 0.01 mPa·s	0.8889 ± 0.019 mPa·s and 0.8889 ± 0.011 mPa·s (2×)	0.8889 ± 0.011 mPa·s	0.986 ± 0.021 mPa·s and 0.986 ± 0.012 mPa·s and 0.986 ± 0.013 mPa·s
308.15 K	–	–	–	0.7529 ± 0.0094 mPa·s	0.7916 ± 0.017 mPa·s and 0.7916 ± 0.0098 mPa·s and 0.7916 ± 0.01 mPa·s	0.7916 ± 0.0099 mPa·s	0.8843 ± 0.019 mPa·s and 0.8843 ± 0.011 mPa·s (2×)
313.15 K	–	–	–	0.683 ± 0.0085 mPa·s	0.7163 ± 0.015 mPa·s and 0.7163 ± 0.0088 mPa·s and 0.7163 ± 0.0091 mPa·s	0.7163 ± 0.009 mPa·s	0.798 ± 0.017 mPa·s and 0.798 ± 0.0099 mPa·s and 0.798 ± 0.01 mPa·s
318.15 K	–	–	–	–	0.6565 ± 0.014 mPa·s and 0.6565 ± 0.0081 mPa·s and 0.6565 ± 0.0084 mPa·s	0.6565 ± 0.0082 mPa·s	0.7216 ± 0.015 mPa·s and 0.7216 ± 0.0089 mPa·s and 0.7216 ± 0.0092 mPa·s

N#C[S-].[NH4+] + CC(=O)[O-].CC[n+]1ccn(C)c1
viscosity [mPa·s], 101 kPa
Conditions	x1 = 0.02	x1 = 0.1002	x1 = 0.1998	x1 = 0.2514	x1 = 0.3001	x1 = 0.3199	x1 = 0.3413
298.15 K	136.6 ± 4.4	160.2 ± 5.3	190.7 ± 6.5	198.6 ± 6.8	194.6 ± 6.6	195.4 ± 6.6	196.4 ± 6.6
303.15 K	100.9 ± 3	117.6 ± 3.6	139.3 ± 4.4	144.4 ± 4.5	141.9 ± 4.4	142.8 ± 4.4	143.6 ± 4.4
308.15 K	76.44 ± 2.1	88.53 ± 2.5	104 ± 2.9	107.4 ± 3	105.9 ± 2.9	106.6 ± 2.9	107.3 ± 2.9
313.15 K	59.28 ± 1.6	68.07 ± 1.8	79.27 ± 2.1	81.46 ± 2.1	80.5 ± 2	81.14 ± 2	81.73 ± 2
318.15 K	46.92 ± 1.2	53.32 ± 1.4	61.47 ± 1.5	62.88 ± 1.5	62.26 ± 1.5	62.81 ± 1.5	63.32 ± 1.5
323.15 K	37.79 ± 1	42.45 ± 1.1	48.4 ± 1.2	49.28 ± 1.2	48.89 ± 1.2	49.35 ± 1.2	49.79 ± 1.1

COC(=O)CC(=O)OC + ClC(Cl)Cl
303.15 K, 101 kPa
Conditions	viscosity [mPa·s]
x1 = 0.0727	0.612 ± 0.0062
x1 = 0.1507	0.727 ± 0.0073
x1 = 0.2329	0.845 ± 0.0084
x1 = 0.3213	0.968 ± 0.0095
x1 = 0.415	1.092 ± 0.011
x1 = 0.5154	1.222 ± 0.012
x1 = 0.6231	1.354 ± 0.013
x1 = 0.7393	1.492 ± 0.015
x1 = 0.8644	1.64 ± 0.016

COc1ccccc1O + c1ccccc1
303.15 K, 101 kPa
Conditions	viscosity [mPa·s]
x2 = 0.1	3.4 ± 0.09
x2 = 0.2	2.49 ± 0.07
x2 = 0.3	1.97 ± 0.05
x2 = 0.4	1.57 ± 0.04
x2 = 0.5	1.29 ± 0.03
x2 = 0.6	1.04 ± 0.03
x2 = 0.7	0.873 ± 0.023
x2 = 0.8	0.742 ± 0.02
x2 = 0.9	0.641 ± 0.017

Brc1ccccc1 + Clc1ccccc1
298.15 K, 101 kPa
Conditions	viscosity [mPa·s]
x2 = 0.299	0.934 ± 0.009
x2 = 0.512	0.86 ± 0.009
x2 = 0.676	0.823 ± 0.008
x2 = 0.828	0.774 ± 0.008

Brc1ccccc1 + CCCCCCCCCCCCCC
viscosity [mPa·s], 101 kPa
Conditions	x2 = 0.1001	x2 = 0.2007	x2 = 0.3005	x2 = 0.3996	x2 = 0.4985	x2 = 0.5998	x2 = 0.6987	x2 = 0.8012	x2 = 0.9011
298.15 K	1.117 ± 0.07	1.185 ± 0.074	1.287 ± 0.08	1.389 ± 0.085	1.49 ± 0.091	1.592 ± 0.097	1.694 ± 0.1	1.796 ± 0.11	1.897 ± 0.11
303.15 K	1.042 ± 0.066	1.13 ± 0.071	1.218 ± 0.076	1.306 ± 0.081	1.394 ± 0.086	1.482 ± 0.091	1.57 ± 0.095	1.658 ± 0.1	1.746 ± 0.11
308.15 K	0.985 ± 0.063	1.06 ± 0.067	1.137 ± 0.071	1.213 ± 0.076	1.289 ± 0.08	1.365 ± 0.084	1.441 ± 0.088	1.517 ± 0.093	1.593 ± 0.097

Brc1ccccc1 + Cc1ccccc1
101 kPa
Conditions	viscosity [mPa·s]
293.15 K, x2 = 0.2	1.001 ± 0.017
293.15 K, x2 = 0.4	0.885 ± 0.015
293.15 K, x2 = 0.6	0.778 ± 0.013
293.15 K, x2 = 0.8	0.677 ± 0.012
298.15 K, x1 = 0.129	0.613 ± 0.005
298.15 K, x1 = 0.267	0.672 ± 0.006
298.15 K, x1 = 0.379	0.72 ± 0.006
298.15 K, x1 = 0.505	0.786 ± 0.007
298.15 K, x1 = 0.629	0.851 ± 0.007
298.15 K, x1 = 0.736	0.91 ± 0.008
298.15 K, x1 = 0.853	0.981 ± 0.008
298.15 K, x1 = 0.882	0.996 ± 0.009
298.15 K, x2 = 0.53	0.75 ± 0.008
298.15 K, x2 = 0.623	0.7 ± 0.007
298.15 K, x2 = 0.72	0.658 ± 0.007
298.15 K, x2 = 0.869	0.603 ± 0.006
303.15 K, x1 = 0.101	0.581 ± 0.01
303.15 K, x1 = 0.129	0.574 ± 0.005
303.15 K, x1 = 0.202	0.635 ± 0.011
303.15 K, x1 = 0.267	0.626 ± 0.006
303.15 K, x1 = 0.303	0.689 ± 0.012
303.15 K, x1 = 0.379	0.674 ± 0.006
303.15 K, x1 = 0.403	0.74 ± 0.013
303.15 K, x1 = 0.503	0.788 ± 0.013
303.15 K, x1 = 0.505	0.729 ± 0.006
303.15 K, x1 = 0.603	0.831 ± 0.014
303.15 K, x1 = 0.629	0.792 ± 0.007
303.15 K, x1 = 0.703	0.877 ± 0.015
303.15 K, x1 = 0.736	0.857 ± 0.007
303.15 K, x1 = 0.802	0.918 ± 0.015
303.15 K, x1 = 0.853	0.92 ± 0.008
303.15 K, x1 = 0.882	0.938 ± 0.008
303.15 K, x1 = 0.901	0.957 ± 0.016
313.15 K, x2 = 0.2	0.786 ± 0.014
313.15 K, x2 = 0.4	0.697 ± 0.012
313.15 K, x2 = 0.6	0.614 ± 0.011
313.15 K, x2 = 0.8	0.537 ± 0.009

CCCCn1cc[n+](C)c1.O=S(=O)([N-]S(=O)(=O)C(F)(F)F)C(F)(F)F + CCCCn1cc[n+](C)c1.F[B-](F)(F)F
Conditions	viscosity [mPa·s]
323.15 K, 100 kPa, x1 = 0.751	23.85 ± 1.2

Ic1ccccc1 + CCCCCO
293.15 K, 101.33 kPa
Conditions	viscosity [mPa·s]
x2 = 0.1	1.665 ± 0.039
x2 = 0.2	1.694 ± 0.04
x2 = 0.25	1.709 ± 0.04
x2 = 0.3834	1.864 ± 0.043
x2 = 0.4289	1.94 ± 0.045
x2 = 0.5101	2.098 ± 0.048
x2 = 0.7761	2.915 ± 0.066
x2 = 0.8055	3.043 ± 0.068
x2 = 0.8184	3.1 ± 0.069
x2 = 0.8554	3.273 ± 0.073
x2 = 0.9419	3.7 ± 0.082
x2 = 0.975	3.867 ± 0.085
